Here are results for one compound from article PMC7933930, “Development of a small molecule that corrects misfolding and increases secretion of Z α1‐antitrypsin” (EMBO Molecular Medicine, 2021).

The structures appear in SMILES notation. Bounds are passed on as bounds.

Series [1] has as its system Z α1‐antitrypsin polymers in CHO‐TET‐ON‐Z‐A1AT cells. Nature of the series: Intracellular Z α1‐antitrypsin polymer formation in CHO‐TET‐ON‐Z‐A1AT cells (2C1 staining). Format: cell-based. On the procedure: The ability of GSK716 to block Z α1‐antitrypsin polymerisation in the ER during folding was assessed by adding GSK716 to CHO‐TET‐ON‐Z‐A1AT cells (Ordóñez et al, 2013) with simultaneous induction of Z α1‐antitrypsin expression using doxycycline. […] Similar potency between the effects on secretion and polymerisation was observed throughout members of the lead series supporting the hypothesis that these effects are caused by the same pharmacological mode of action.
Figure 2 GSK716 inhibits polymerisation of Z α1‐antitrypsin in cell models of disease • A GSK716 was added to CHO‐TET‐ON‐Z‐A1AT cells (Ordóñez et al, 2013) with simultaneous induction of Z α1‐antitrypsin expression using doxycycline, and polymer load was quantified with the 2C1 monoclonal antibody that is specific to pathological polymers of α1‐antitrypsin (Miranda et al, 2010). […] For every time point, NP‐40‐soluble and NP‐40‐insoluble fractions were separated and immunoprecipitated with the 2C1 mAb and resolved by 4–12% w/v SDS–PAGE and α1‐antitrypsin detected by immunoblotting. […] Cell viability was measured by Cell Counting Kit‐8. […] Samples were resolved by 4–12% w/v acrylamide SDS–PAGE and detected by autoradiography. • H The graphs show the effect of GSK716 on intracellular and extracellular Z α1‐antitrypsin (mean ± SEM, n = 2). […]

Series [2] relates to Z α1‐antitrypsin polymers in iPSC‐derived human hepatocytes (ZZ genotype). In words: Z α1‐antitrypsin polymerisation in ZZ iPSC‐derived human hepatocytes. It counts as cell-based. The conditions noted are these: Hepatocyte, n = 16, read-out: mean pIC50, polymerisation (converted).
The nature of series [3]: Oral pharmacokinetics in dog. The conditions noted are these: beagle, whole blood, ≤ 3 mg/kg, read-out: F (oral bioavailability). Format: in vivo. On the procedure: […] Blood samples were taken into EDTA, diluted and mixed with acetonitrile containing internal standard (alprazolam) and centrifuged to precipitate proteins. Aliquots of the resultant supernatant were analysed by LC‐MS/MS, and concentrations of GSK716 in blood were determined. Non‐compartmental pharmacokinetic analysis (NCA) was carried out using Phoenix WinNonLin 6.3 (Certara L.P.). Free drug was measured in Z α1‐antitrypsin transgenic mice by dialysing tissue samples in rapid equilibrium dialysis cassettes.

Series [4] can be described thus: Oral pharmacokinetics in male CD‐1 mouse. Format: in vivo. As for the experimental part:
Male CD‐1 mice, Han Wistar rats or beagle dogs were administered GSK716 as a suspension in 1% w/v aqueous methylcellulose via oral gavage at doses of 1 mg/kg (dog) or 10, 30 and 100 mg/kg (mouse, rat). Blood samples were taken into EDTA, diluted and mixed with acetonitrile containing internal standard (alprazolam) and centrifuged to precipitate proteins. Aliquots of the resultant supernatant were analysed by LC‐MS/MS, and concentrations of GSK716 in blood were determined. Non‐compartmental pharmacokinetic analysis (NCA) was carried out using Phoenix WinNonLin 6.3 (Certara L.P.). Free drug was measured in Z α1‐antitrypsin transgenic mice by dialysing tissue samples in rapid equilibrium dialysis cassettes.

For series [5], the target named is Cycloxygenase2 (COX2) (Homo sapiens, UniProt P35354). Nature of the series: Off‐target panel: Cycloxygenase2 (COX2). Format: biochemical. The conditions noted are these: Inhibition, read-out: Mean (PXC50). As for the experimental part: (§1) GSK716 selectivity and PK properties were profiled in order to investigate the suitability of GSK716 for progression into in vivo studies and the potential for taking it forward as a clinical candidate for testing in humans. Since GSK716 results in loss of inhibitory activity of α1‐antitrypsin, the effect of the compound was assessed on other closely related serpins. […] Furthermore, there were no off‐target effects in a panel of assays considered predictive of known safety liabilities that precluded further development of GSK716 (Table EV1).
Chain of Cycloxygenase2 (COX2) (P35354 18-604): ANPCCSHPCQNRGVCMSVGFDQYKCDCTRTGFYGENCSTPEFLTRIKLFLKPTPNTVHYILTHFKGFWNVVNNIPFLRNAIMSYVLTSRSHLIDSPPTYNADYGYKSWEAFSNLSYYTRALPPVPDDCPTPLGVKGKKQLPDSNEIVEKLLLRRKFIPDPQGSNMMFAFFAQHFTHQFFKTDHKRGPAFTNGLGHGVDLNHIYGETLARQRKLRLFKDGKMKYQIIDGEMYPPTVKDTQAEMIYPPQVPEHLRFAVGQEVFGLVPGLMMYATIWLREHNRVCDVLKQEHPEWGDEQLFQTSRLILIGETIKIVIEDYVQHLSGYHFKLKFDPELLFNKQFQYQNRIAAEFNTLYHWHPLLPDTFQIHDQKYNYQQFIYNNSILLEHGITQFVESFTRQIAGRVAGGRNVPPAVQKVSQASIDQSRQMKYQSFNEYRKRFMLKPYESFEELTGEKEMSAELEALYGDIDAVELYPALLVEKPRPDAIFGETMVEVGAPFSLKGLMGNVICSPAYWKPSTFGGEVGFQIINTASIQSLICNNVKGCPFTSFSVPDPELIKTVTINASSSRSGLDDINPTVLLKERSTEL

In series [6] the target is L-type Ca channel (CaV1.2) (Homo sapiens, UniProt Q13936). In words: in vitro. Format: cell-based. As for the experimental part:
as §1

The target in series [7] is Serotonin transporter (Homo sapiens, UniProt P31645). Nature of the series: Off‐target panel: Serotonin transporter. Format: cell-based. On the procedure: as §1

Chain of L-type Ca channel (CaV1.2) (Q13936 whole entry): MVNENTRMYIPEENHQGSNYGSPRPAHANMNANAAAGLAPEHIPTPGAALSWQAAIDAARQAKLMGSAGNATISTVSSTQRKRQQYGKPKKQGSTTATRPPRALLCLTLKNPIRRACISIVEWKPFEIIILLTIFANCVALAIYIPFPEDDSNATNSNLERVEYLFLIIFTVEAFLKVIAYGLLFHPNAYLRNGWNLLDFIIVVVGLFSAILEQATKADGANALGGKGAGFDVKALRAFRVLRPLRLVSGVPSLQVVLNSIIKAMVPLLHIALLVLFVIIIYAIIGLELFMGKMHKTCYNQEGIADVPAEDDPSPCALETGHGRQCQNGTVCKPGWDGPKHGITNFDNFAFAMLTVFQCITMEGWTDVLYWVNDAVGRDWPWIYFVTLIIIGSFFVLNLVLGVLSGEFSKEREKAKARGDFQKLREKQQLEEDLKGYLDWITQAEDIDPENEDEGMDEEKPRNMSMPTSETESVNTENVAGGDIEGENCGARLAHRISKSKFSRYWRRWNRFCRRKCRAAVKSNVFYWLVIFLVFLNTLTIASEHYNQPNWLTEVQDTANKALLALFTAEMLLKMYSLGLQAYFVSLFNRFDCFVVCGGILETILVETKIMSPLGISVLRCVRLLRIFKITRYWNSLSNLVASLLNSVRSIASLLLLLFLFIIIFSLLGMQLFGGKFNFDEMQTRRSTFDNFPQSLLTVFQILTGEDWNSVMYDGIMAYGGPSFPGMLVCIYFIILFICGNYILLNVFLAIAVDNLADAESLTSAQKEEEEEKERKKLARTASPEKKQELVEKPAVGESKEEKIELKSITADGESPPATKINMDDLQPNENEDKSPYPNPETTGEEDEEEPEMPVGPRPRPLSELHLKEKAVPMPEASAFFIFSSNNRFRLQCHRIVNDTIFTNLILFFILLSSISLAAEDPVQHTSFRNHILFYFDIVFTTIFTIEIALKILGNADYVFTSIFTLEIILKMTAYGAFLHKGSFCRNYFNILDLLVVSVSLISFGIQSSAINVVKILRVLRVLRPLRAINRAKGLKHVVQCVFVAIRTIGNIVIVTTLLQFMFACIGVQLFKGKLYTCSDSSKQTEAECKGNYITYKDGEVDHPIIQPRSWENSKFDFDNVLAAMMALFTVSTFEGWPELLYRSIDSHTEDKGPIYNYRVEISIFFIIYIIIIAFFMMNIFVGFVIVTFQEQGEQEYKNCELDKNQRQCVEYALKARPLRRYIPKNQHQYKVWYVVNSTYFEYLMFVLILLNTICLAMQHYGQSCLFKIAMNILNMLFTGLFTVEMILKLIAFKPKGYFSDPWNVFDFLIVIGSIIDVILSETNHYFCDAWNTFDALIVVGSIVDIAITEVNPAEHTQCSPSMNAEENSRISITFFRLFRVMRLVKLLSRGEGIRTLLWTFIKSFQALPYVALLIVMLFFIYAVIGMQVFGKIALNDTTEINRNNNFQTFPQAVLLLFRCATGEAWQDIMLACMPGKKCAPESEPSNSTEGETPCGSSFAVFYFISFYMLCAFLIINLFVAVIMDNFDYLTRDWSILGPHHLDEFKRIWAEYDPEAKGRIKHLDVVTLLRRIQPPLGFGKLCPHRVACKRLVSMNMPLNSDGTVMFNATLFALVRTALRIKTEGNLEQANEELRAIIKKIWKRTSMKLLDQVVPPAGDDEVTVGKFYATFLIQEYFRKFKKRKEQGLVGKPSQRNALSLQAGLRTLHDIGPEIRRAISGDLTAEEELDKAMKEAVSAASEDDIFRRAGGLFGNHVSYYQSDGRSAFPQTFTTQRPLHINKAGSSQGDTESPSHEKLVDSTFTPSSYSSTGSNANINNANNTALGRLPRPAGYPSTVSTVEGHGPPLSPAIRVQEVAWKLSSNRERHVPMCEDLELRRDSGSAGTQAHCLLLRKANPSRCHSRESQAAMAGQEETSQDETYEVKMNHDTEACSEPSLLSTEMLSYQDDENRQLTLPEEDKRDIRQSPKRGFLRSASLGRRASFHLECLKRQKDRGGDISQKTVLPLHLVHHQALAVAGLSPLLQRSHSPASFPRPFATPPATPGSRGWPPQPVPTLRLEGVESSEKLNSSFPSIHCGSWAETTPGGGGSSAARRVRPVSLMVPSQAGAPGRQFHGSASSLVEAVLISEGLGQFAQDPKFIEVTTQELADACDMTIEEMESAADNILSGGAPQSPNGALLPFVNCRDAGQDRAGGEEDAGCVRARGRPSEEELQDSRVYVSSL
Chain of L-type Ca channel (CaV1.2) (Q08289 whole entry partner): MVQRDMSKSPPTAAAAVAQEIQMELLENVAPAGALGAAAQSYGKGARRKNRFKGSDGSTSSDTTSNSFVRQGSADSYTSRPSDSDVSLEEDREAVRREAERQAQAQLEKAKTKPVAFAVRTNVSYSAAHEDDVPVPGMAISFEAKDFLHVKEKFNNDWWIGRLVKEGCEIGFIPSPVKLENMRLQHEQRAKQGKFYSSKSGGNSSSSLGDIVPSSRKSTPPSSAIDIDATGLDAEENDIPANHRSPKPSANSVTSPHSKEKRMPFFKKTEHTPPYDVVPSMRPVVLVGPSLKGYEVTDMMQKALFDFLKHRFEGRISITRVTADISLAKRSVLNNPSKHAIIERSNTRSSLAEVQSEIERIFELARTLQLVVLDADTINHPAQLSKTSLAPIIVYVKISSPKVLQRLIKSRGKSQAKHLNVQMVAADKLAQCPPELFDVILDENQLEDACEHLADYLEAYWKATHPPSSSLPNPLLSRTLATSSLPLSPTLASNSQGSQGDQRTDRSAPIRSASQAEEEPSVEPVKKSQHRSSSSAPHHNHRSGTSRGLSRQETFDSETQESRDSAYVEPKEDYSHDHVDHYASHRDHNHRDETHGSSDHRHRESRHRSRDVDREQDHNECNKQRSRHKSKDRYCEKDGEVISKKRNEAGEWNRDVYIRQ
Chain of L-type Ca channel (CaV1.2) (P54289 25-946 partner limits assumed): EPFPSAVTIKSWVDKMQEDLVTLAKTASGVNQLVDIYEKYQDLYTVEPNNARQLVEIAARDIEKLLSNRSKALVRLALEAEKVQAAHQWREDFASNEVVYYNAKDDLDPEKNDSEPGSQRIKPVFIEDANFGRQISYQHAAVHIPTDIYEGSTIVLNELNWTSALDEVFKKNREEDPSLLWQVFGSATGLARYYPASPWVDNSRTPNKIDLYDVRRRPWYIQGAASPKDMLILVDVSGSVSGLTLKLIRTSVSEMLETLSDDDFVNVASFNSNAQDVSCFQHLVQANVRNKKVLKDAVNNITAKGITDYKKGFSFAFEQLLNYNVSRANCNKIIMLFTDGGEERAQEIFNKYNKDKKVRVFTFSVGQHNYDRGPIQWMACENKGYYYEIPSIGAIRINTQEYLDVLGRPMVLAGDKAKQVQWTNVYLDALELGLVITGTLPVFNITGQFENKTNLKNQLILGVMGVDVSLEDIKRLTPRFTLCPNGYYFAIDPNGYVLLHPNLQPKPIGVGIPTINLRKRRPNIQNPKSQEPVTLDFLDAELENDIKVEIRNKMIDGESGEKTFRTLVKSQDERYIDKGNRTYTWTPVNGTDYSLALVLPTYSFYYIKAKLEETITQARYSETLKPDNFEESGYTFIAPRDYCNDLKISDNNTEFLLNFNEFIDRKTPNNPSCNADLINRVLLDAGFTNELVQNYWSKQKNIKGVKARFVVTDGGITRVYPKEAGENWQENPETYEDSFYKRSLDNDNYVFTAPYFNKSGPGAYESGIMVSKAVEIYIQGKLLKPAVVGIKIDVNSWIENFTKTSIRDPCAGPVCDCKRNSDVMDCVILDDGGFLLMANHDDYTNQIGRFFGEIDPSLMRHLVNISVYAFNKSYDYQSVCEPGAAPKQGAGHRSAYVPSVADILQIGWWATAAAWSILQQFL
Chain of L-type Ca channel (CaV1.2) (P54289 947-1103 partner limits assumed): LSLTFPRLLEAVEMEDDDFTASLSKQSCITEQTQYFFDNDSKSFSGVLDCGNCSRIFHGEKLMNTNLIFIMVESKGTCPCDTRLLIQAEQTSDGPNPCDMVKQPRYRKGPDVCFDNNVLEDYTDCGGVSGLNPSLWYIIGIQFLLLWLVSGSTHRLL

By bioavailability is commonly meant the share of a dose that reaches the circulation, judged against a reference dose that is usually intravenous. On to `CCC[C@@H](NC(=O)c1cccc2c1CC(=O)N2)[C@@H](O)c1cccc(F)c1C` [GSK716], for which, in series [1], the “intracellular formation of Z α1‐antitrypsin polymers in comparison with controls” value is recorded as “completely blocked”. In addition, the IC50 was 501 nM in series [1] (doxycycline induction, n = 71, read-out: mean pIC50, intracellular formation of Z α1‐antitrypsin polymers (converted)); 398 nM in series [2]; over 100000 nM in series [5]; under 2140 nM in series [6]; over 100000 nM in series [7]. Further, in series [3], the bioavailability was found to be 71%. The DNAUCinf in blood in series [4] (single PO 10 mg/kg) stood at 202 ± 101; in series [4] (single PO 30 mg/kg) it was 294 ± 47; in series [4] (single PO 100 mg/kg), 403 ± 246.
